Patent US20260041744A1, “Methods for Treating Pompe Disease” (Amicus Therapeutics, Inc., priority 2022, published 2026)

Experiments:
[1] = test system: adults with Pompe disease; experiment: Study ATB200-02: plasma/serum creatine kinase (CK); details: for mean reduction from baseline in plasma CK: b512 prints a minus sign
Description: The change from baseline (CFBL) in 6MWD, % predicted sitting FVC, manual muscle test (MMT) and biomarkers—urine glucose tetrasaccharide (Hex4) and serum creatine kinase (CK)—were assessed at regular intervals.

[2] = test system: adult subjects with late-onset Pompe disease (LOPD); experiment: Study ATB200-03 (PROPEL): 6-minute walk test (6MWD); assay type: in vivo, human
Description: Efficacy Analyses. The primary efficacy endpoint (i.e., change from baseline to Week 52 in 6MWD) was analyzed using a parametric analysis of covariance (ANCOVA) model to compare between the new treatment and the control. […] However, the baseline 6MWD could not be used in the model twice (both as a continuous and a categorical variable) due to the expected high point biserial correlation between them. Thus, the 6MWD continuous variable remained in the model but the categorical 6MWD was removed.
The test for the primary endpoint was conducted first at the 1-sided 0.025 significance level, and if significant, the ordered key secondary endpoints were similarly tested at the same significance level. The statistical significance of the key secondary endpoints was interpreted following a hierarchical testing order, each at the 1-sided alpha level of 0.025. […] Primary analyses of efficacy were performed using the mixed-effect model for repeated measures (MMRM) for 6MWD in Intent-to-treat Observed Population (ITT) that includes all available, observed data without any missing data imputation (ITT-OBS) and analysis of covariance (ANCOVA) for all other endpoints in the Intent-to-Treat-Last Observation Carried Forward (ITT-LOCF) Population. A nonparametric randomization based ANCOVA was specified as the first sensitivity analysis for 6MWD and FVC. […] For the purposes of data presentation in this document, 2-sided p-values are reported hereafter, except as otherwise noted.
Analysis of 6MWD was performed using an MMRM model with actual time point of assessments on the ITT-OBS and excluding the outlier Subject 4005-2511. Specifically, the dependent variable is the change from baseline in the assessment. Independent variables include the fixed, categorical effects of treatment, ERT status, and gender, as well as the fixed, continuous covariates of time of assessment (days), baseline 6MWD, baseline age, baseline weight, and baseline height, and the treatment-by-time interaction. A random intercept of subject is also included in the model. Change from baseline at Week 52 for each treatment group and the difference between treatment groups were then estimated with the LS means at Day 364, together with the 95% CIs.

[3] = test system: adult subjects with late-onset Pompe disease (LOPD); experiment: Study ATB200-03 (PROPEL): GSGC total score; assay type: in vivo, human; details: for CHG to Week 52 in GSGC total score, LS Mean: MMRM, actual time point of assessments, decrease indicates improvement; for GSGC total score CHG, LS means (SE): Week 52, ANCOVA
Description: The test for the primary endpoint was conducted first at the 1-sided 0.025 significance level, and if significant, the ordered key secondary endpoints were similarly tested at the same significance level. […] A nonparametric randomization based ANCOVA was specified as the first sensitivity analysis for 6MWD and FVC. […] For the purposes of data presentation in this document, 2-sided p-values are reported hereafter, except as otherwise noted.

[4] = Baseline, ITT, ERT-naïve Population excluding Subject 4005-2511
[5] = Week 52-LOCF, ERT-experienced Population
[6] = Week 52-LOCF, ITT excluding Subject 4005-2511
[7] = Week 52-LOCF, ITT, ERT-naïve Population excluding Subject 4005-2511
[8] = Week 52-Observed, ERT-experienced Population
[9] = Week 52-Observed, ITT excluding Subject 4005-2511
[10] = Week 52-Observed, ITT, ERT-naïve Population excluding Subject 4005-2511
[11] = Week 52-LOCF, ERT-naïve Subjects excluding Subject 4005-2511

ATB200/miglustat: two-component therapy: cipaglucosidase alfa (ATB200) administered in conjunction with miglustat (AT2221), a stabilizer of cipaglucosidase alfa
Serum creatine kinase, % CFBL mean ([1]; Ambulatory ERT-experienced, 12 months): −20.5%
Serum creatine kinase, % CFBL mean ([1]; Ambulatory ERT-experienced, 24 months): −29.9%
Serum creatine kinase, % CFBL mean ([1]; Ambulatory ERT-experienced, 36 months): −30.0%
Serum creatine kinase, % CFBL mean ([1]; Ambulatory ERT-experienced, 48 months): −35.3%
Serum creatine kinase, % CFBL mean ([1]; Ambulatory ERT-naïve, 12 months): −50.6%
Serum creatine kinase, % CFBL mean ([1]; Ambulatory ERT-naïve, 24 months): −46.5%
Serum creatine kinase, % CFBL mean ([1]; Ambulatory ERT-naïve, 36 months): −50.7%
Serum creatine kinase, % CFBL mean ([1]; Ambulatory ERT-naïve, 48 months): −35.9%
mean reduction from baseline in plasma CK ([1]; Cohort 2 (non-ambulatory ERT-experienced), 12 months, listed as cipaglucosidase alfa plus miglustat): 20.8%
mean reduction from baseline in plasma CK ([1]; Cohort 2 (non-ambulatory ERT-experienced), 12 months, listed as cipaglucosidase alfa/miglustat): −20.8%
mean reduction from baseline in plasma CK ([1]; Cohort 2, 24 months, listed as cipaglucosidase alfa plus miglustat): 25.3%
mean reduction from baseline in plasma CK ([1]; Cohort 2, 24 months, listed as cipaglucosidase alfa/miglustat): −25.3%
mean reduction from baseline in plasma CK ([1]; Cohort 2, 36 months, listed as cipaglucosidase alfa plus miglustat): 27.1%
mean reduction from baseline in plasma CK ([1]; Cohort 2, 36 months, listed as cipaglucosidase alfa/miglustat): −27%
mean reduction from baseline in plasma CK ([1]; Cohort 2, 48 months, listed as cipaglucosidase alfa plus miglustat): 23.7%
mean reduction from baseline in plasma CK ([1]; Cohort 2, 48 months, listed as cipaglucosidase alfa/miglustat): −23.7%
patients with abnormal baseline CK who had normal CK levels at Month 48 ([1]; ERT-experienced (two of six)): 33.3%
patients whose plasma CK decreased numerically from baseline (n/N) ([1]; ERT-experienced, 12 months): 13/15
patients whose plasma CK decreased numerically from baseline (n/N) ([1]; ERT-experienced, 24 months): 14/15
patients whose plasma CK decreased numerically from baseline (n/N) ([1]; ERT-experienced, 36 months): 9/11
patients whose plasma CK decreased numerically from baseline (n/N) ([1]; ERT-experienced, 48 months): 8/9
CK status at Month 48 of patients with abnormal baseline CK ([1]; ERT-naïve (two of five abnormal at baseline)): remained abnormal at Month 48
patients whose plasma CK decreased numerically from baseline (n/N) ([1]; ERT-naïve, 12 months): 6/6
patients whose plasma CK decreased numerically from baseline (n/N) ([1]; ERT-naïve, 24 months): 6/6
patients whose plasma CK decreased numerically from baseline (n/N) ([1]; ERT-naïve, 36 months): 5/5
patients whose plasma CK decreased numerically from baseline (n/N) ([1]; ERT-naïve, 48 months): 4/5
Serum creatine kinase, % CFBL mean ([1]; Non-ambulatory ERT-experienced, 12 months): −20.8%
Serum creatine kinase, % CFBL mean ([1]; Non-ambulatory ERT-experienced, 24 months): −25.3%
Serum creatine kinase, % CFBL mean ([1]; Non-ambulatory ERT-experienced, 36 months): −27.1%
Serum creatine kinase, % CFBL mean ([1]; Non-ambulatory ERT-experienced, 48 months): −23.7%

alglucosidase alfa [reference compound]
6MWD Absolute Value, Mean [2, 4]: 420.94 meters
6MWD Absolute Value, Median [2, 4]: 385.50 meters
6MWD CFBL at Week 52 ([2]; ERT switch (ERT-experienced) population): 0.0 m
6MWD CFBL at Week 52 ([2]; ERT switch (ERT-experienced) population, listed as Alglucosidase alfa): 0.0 (7.2) m
6MWD CFBL at Week 52 ([2]; ERT treatment naive population): 38 m
6MWD CFBL at Week 52 ([2]; ERT treatment naive population, listed as Alglucosidase alfa): +38.3 (11.1) m
mean (SD) change in 6MWD from baseline to Week 52 ([2]; ERT-experienced Population (n=95)): 0.7 (39.84) meters
mean (SD) change in 6MWD from baseline to Week 52 ([2]; ERT-naïve Population excluding Subject 4005-2511 (n=27)): 38.3 (29.32) meters
mean (SD) change in 6MWD from baseline to Week 52 ([2]; ITT population excluding Subject 4005-2511): 8.0 (40.56) meters
6MWD LS mean improvement from baseline, MMRM with actual time point of assessments ([2]; ITT-OBS excluding Subject 4005-2511, Week 52): 8.3 m
Change in 6MWD baseline to Week 52, LS means (SE) from MMRM ([2]; ITT-OBS, ERT-naïve Population excluding Subject 4005-2511): 39.47 (17.15) meters
CHG to week 52 in 6MWD, LS Mean (95% CI) ([2]; MMRM, actual time point of assessments, ITT-OBS Population excluding Subject 4005-2511 (overall)): 8.3 (−2.2, 18.8) m
CHG to Week 52 in 6MWD, LS Mean ([2]; MMRM, actual time point of assessments, ITT-OBS excluding Subject 4005-2511, ERT-naïve Subjects): 52.7
CHG to Week 52 in 6MWD, LS Mean ([2]; MMRM, actual time point of assessments, ITT-OBS, ERT-experienced Subjects): 0.9
6MWD Absolute Value, Mean (SD) [2, 5]: 334.60 (129.506) meters
6MWD Absolute Value, Median [2, 5]: 339.03 meters
6MWD CHG, Mean (SD) [2, 5]: −0.02 (39.345) meters
6MWD CHG, Median [2, 5]: −8.93 meters
6MWD Absolute Value, Mean [2, 6]: 358.19 meters
6MWD Absolute Value, Median [2, 6]: 370.00 meters
6MWD CHG, Mean [2, 6]: 7.24 meters
6MWD CHG, Median [2, 6]: 1.40 meters
6MWD Absolute Value, Mean [2, 7]: 459.28 meters
6MWD Absolute Value, Median [2, 7]: 446.50 meters
6MWD CHG (change from baseline), Mean [2, 7]: 38.34 meters
6MWD CHG (change from baseline), Median [2, 7]: 33.50 meters
6MWD Absolute Value, Mean (SD) [2, 8]: 335.66 (131.666) meters
6MWD Absolute Value, Median [2, 8]: 348.00 meters
6MWD CHG, Mean (SD) [2, 8]: 0.70 (39.841) meters
6MWD CHG, Median [2, 8]: −8.65 meters
6MWD Absolute Value, Mean [2, 9]: 359.70 meters
6MWD Absolute Value, Median [2, 9]: 371.75 meters
6MWD CHG, Mean [2, 9]: 8.02 meters
6MWD CHG, Median [2, 9]: 3.15 meters
6MWD Absolute Value, Mean [2, 10]: 459.28 meters
6MWD Absolute Value, Median [2, 10]: 446.50 meters
6MWD CHG (change from baseline), Mean [2, 10]: 38.34 meters
6MWD CHG (change from baseline), Median [2, 10]: 33.50 meters
LS Mean (SE), Change from Baseline in 6MWD ([2]; Week 52, ANCOVA, ITT-LOCF excluding outliers with externally studentized residuals >3): 6.95 (6.951) meters
6MWD CHG, LS mean (SE) ([2]; Week 52, MMRM, ITT-OBS excluding Subject 4005-2511): 7.10 (7.043) meters
6MWD CHG, LS means (SE) ([2]; Week 52, MMRM, ITT-OBS, ERT-experienced Population): 0.59 (7.569) meters
6MWD CFBL at Week 52 ([2]; overall ERT switch + ERT naïve population): 7 m
6MWD CFBL at Week 52 ([2]; overall ERT switch + ERT naïve population, listed as Alglucosidase alfa): +7.2 (6.6) m
6MWD CFBL at Week 52 ([2]; overall ERT switch + ERT naïve population, listed as alglucosidase alfa/placebo): 7 m
GSGC Total Score Absolute Value, Median ([3]; Baseline, ITT, ERT-naïve Subjects excluding Subject 4005-2511): 9.00
GSGC Total Score Absolute Value, Mean ([3]; Baseline, ITT, ERT-naïve Subjects excluding Subject 4005-2511, 4 points (normal) to 27 points (worst)): 10.86
mean (SD) change in GSGC total score from baseline to Week 52 ([3]; ERT-experienced Population): 0.6 (1.83)
mean (SD) change in GSGC total score from baseline to Week 52 ([3]; ERT-naïve excluding Subject 4005-2511): 1.3 (1.80)
Change in GSGC total score baseline to Week 52, LS means (SE) from ANCOVA ([3]; ITT-LOCF, ERT-naïve Subjects excluding Subject 4005-2511): 0.91 (1.042)
CHG to Week 52 in GSGC total score, LS Mean ([3]; ITT-OBS excluding Subject 4005-2511 (overall)): 0.8
CHG to Week 52 in GSGC total score, LS Mean ([3]; ITT-OBS excluding Subject 4005-2511, ERT-naïve Subjects): 1.3
CHG to Week 52 in GSGC total score, LS Mean ([3]; ITT-OBS, ERT-experienced Subjects): 0.5
GSGC Total Score Absolute Value, Mean [3, 5]: 15.87
GSGC Total Score Absolute Value, Median [3, 5]: 17.00
GSGC Total Score CHG, Mean [3, 5]: 0.61
GSGC total score CHG, Median [3, 5]: 0.00
GSGC Total Score Absolute Value, Mean [3, 11]: 12.14
GSGC Total Score Absolute Value, Median [3, 11]: 10.00
GSGC Total Score CHG (change from baseline), Mean [3, 11]: 1.29
GSGC Total Score CHG (change from baseline), Median [3, 11]: 1.00
GSGC Total Score Absolute Value, Median [3, 6]: 16.00
GSGC total score Absolute Value, Mean (SD) [3, 6]: 15.00 (4.488)
GSGC total score CHG, Mean (SD) [3, 6]: 0.77 (1.813)
GSGC total score CHG, Median [3, 6]: 0.50
GSGC total score CHG, LS means (SE) ([3]; ITT-LOCF excluding Subject 4005-2511): 0.847 (0.440)
GSGC total score CHG, LS means (SE) ([3]; ITT-LOCF, ERT-experienced Population): 0.65 (0.494)
GSGC outcome ([3]; overall (and ERT-experienced) population, week 52): worsening
mean (SD) change in GSGC total score from baseline to Week 52 ([3]; overall population, negative = improvement, listed as alglucosidase alfa and placebo): 0.77 (1.8)
mean (SD) change in GSGC total score from baseline to Week 52 ([3]; overall population, negative = improvement, listed as alglucosidase alfa/placebo): 0.77 (1.81)
